{
  "source": "patent US20240261356A1",
  "about": "“COMPOSITION CONTAINING ACANTHOPANAX EXTRACT AND GARCINIA CAMBOGIA EXTRACT OR COMPOUND ISOLATED THEREFROM AS ACTIVE INGREDIENT FOR PREVENTION OR TREATMENT OF LIVER DISEASE” (KOREA RESEARCH INSTITUTE OF BIOSCIENCE AND BIOTECHNOLOGY, priority 2021, published 2024)",
  "key": {"HepG2 cells [1]": {"tested_on": "HepG2 cells", "test": "Fatty acid-induced intracellular fat accumulation (BODIPY fluorescence) in non-alcoholic fatty liver cell model", "format": "cell-based, human", "procedure": "The human liver-derived HepG2 cell line was purchased from American Type Culture Collection (ATCC, VA, USA). HepG2 cells were cultured at 37° C. in an incubator supplied with 5% carbon dioxide. For the cell culture, MEM (Gibco Cat No. 11095-098) medium containing 10% fetal bovine serum (FBS) and 1% antibiotics (Penicillin-streptomycin, Gibco) was used. HepG2 cells were seeded in a 96-well plate at 1×10^4 cells/well, and, after 24 hours, treated with 150 μM oleic acid (Sodium oleate, Sigma, USA) for 24 hours to increase intracellular fat accumulation. The drug treated group was treated 1 hour before being treated with oleic acid. Upon completion of the experiment, the cells were fixed with 4% formaldehyde for 10 minutes and washed twice with PBS buffer. A solution containing […] (Invitrogen Corporation, NY, USA) was added and cultured at room temperature for 30 minutes. At this time, the final concentration of the fluorescent dye BODIPY was 2 μg/ml. After completion of the reaction, the plate was washed three times with PBS buffer, and, when only the minimum amount of PBS remained, the fluorescence was quantified by using a SpectraMax M4 microplate reader (Molecular Devices, USA). At this time, the excitation wavelength was 485 nm, and the emission was 525 nm. The experiment was performed by blocking light with aluminum foil to allow in as little light as possible."}, "HepG2 cells [2]": {"tested_on": "HepG2 cells", "test": "Cell viability (CCK-8) of fatty acid-induced non-alcoholic fatty liver cell model", "format": "cell-based, human", "conditions": "Table 6, Garcinia extract 0 + Chiisanogenin 6 μg/ml", "procedure": "The human liver-derived HepG2 cell line was purchased from American Type Culture Collection (ATCC, VA, USA). HepG2 cells were cultured at 37° C. in an incubator supplied with 5% carbon dioxide. For the cell culture, MEM (Gibco Cat No. 11095-098) medium containing 10% fetal bovine serum (FBS) and 1% antibiotics (Penicillin-streptomycin, Gibco) was used. HepG2 cells were seeded in a 96-well plate at 1×10^4 cells/well, and, after 24 hours, treated with 150 μM oleic acid (Sodium oleate, Sigma, USA) for 24 hours to increase intracellular fat accumulation. The drug treated group was treated 1 hour before being treated with oleic acid. […] After completion of the reaction, the plate was washed three times with PBS buffer, and, when only the minimum amount of PBS remained, the fluorescence was quantified by using a SpectraMax M4 microplate reader (Molecular Devices, USA). […]\nIn the experimental conditions of the present invention, cell viability was determined by mixing 90 μl of medium with 10 μl of CCK-8 solution, adding 100 μl per well and reacting the mixture for at least 30 minutes to 1 hour, followed by measurement of the absorbance at 450 nm, as described in the CCK-8 (Dojindo) kit. The cell viability was calculated according to Equation 1 below, taking the negative control as 100%, and the results are shown in Tables 8 and 9 below."}, "[3]": {"tested_on": "non-alcoholic steatohepatitis (NASH) animal models", "test": "AST in serum of non-alcoholic steatohepatitis (NASH) animal model", "format": "in vivo, C57bl/6J mice", "conditions": "NASH mice, 8 weeks, Chiisanogenin 50 mg/kg", "procedure": "(§1) 8-week-old male C57bl/6J mice were fed a NASH-inducing diet (#A06071302 diet) for 8 weeks, and, from the 9th week, single samples (i.e., Garcinia extract, Acanthopanax extract or Chiisanogenin) and a composite sample thereof were administered for 8 weeks, together with NASH dietary feed (#A06071302 diet). To verify the efficacy of each of the Garcinia extract (notified raw material, 60% HCA) and Chiisanogenin or their mixture at each non-clinical administration concentration by using a non-alcoholic steatohepatitis (NASH)-induced animal model, changes of aspartate aminotransferase (AST) and alanine aminotransferase (ALT), which are biomarkers of liver tissue damage, in the serum of the non-alcoholic steatohepatitis (NASH) C57bl/6J mouse models caused by feeding NASH-inducing dietary feed (#A06071302) were observed, and the results are shown in Tables 11 and 12, respectively. In addition, the results of observing changes of hydroxyproline, which is a biomarker of liver fibrosis, in liver tissues are shown in Table 13."}, "[4]": {"tested_on": "non-alcoholic steatohepatitis (NASH) animal models", "test": "ALT in serum of non-alcoholic steatohepatitis (NASH) animal model", "format": "in vivo, C57bl/6J mice", "conditions": "NASH mice, 8 weeks, Chiisanogenin 50 mg/kg", "procedure": "as §1"}, "[5]": {"tested_on": "non-alcoholic steatohepatitis (NASH) animal models", "test": "Fibrosis marker hydroxyproline in liver tissue of NASH animal model", "format": "in vivo, C57bl/6J mice", "conditions": "NASH mice, 8 weeks, Chiisanogenin 50 mg/kg", "procedure": "as §1"}},
  "data": [
    {"compound": "C=C(C)[C@@H]1CC[C@]2(C(=O)O)CC[C@]3(C)[C@H](C[C@H]4OC(=O)C[C@@H](O)[C@]5(C)[C@@H]4[C@@]3(C)CC[C@H]5C(=C)C)[C@@H]12", "note": "[Chiisanogenin]", "values": [
      {"measurement": "inhibition at 6 µg/mL", "setting": "HepG2 cells [1]; Homo sapiens, HepG2, Table 4, fat accumulation, Garcinia extract 0 + Chiisanogenin 6 μg/ml, read-out: Inhibition rate (%)", "result": 80, "unit": "%"},
      {"measurement": "TG (% relative to positive control group, mean ± deviation)", "setting": "HepG2 cells [1]; Table 4, Garcinia extract 0 + Chiisanogenin 6 μg/ml", "result": "64 ± 7.9", "unit": "%"},
      {"measurement": "Cell viability (%, mean ± deviation)", "setting": "HepG2 cells [2]", "result": "105 ± 13.7", "unit": "%"},
      {"measurement": "AST in serum (% relative to positive control group, mean ± deviation)", "setting": "[3]", "result": "97 ± 15.4", "unit": "%"},
      {"measurement": "Inhibition rate (%, mean ± deviation)", "setting": "[3]; serum AST", "result": "4 ± 19.8", "unit": "%"},
      {"measurement": "ALT in serum (% relative to positive control group, mean ± deviation)", "setting": "[4]", "result": "89 ± 14.6", "unit": "%"},
      {"measurement": "Inhibition rate (%, mean ± deviation)", "setting": "[4]; serum ALT", "result": "12 ± 5.1", "unit": "%"},
      {"measurement": "Hydroxyproline in liver tissues (% relative to positive control group, mean ± deviation)", "setting": "[5]", "result": "69 ± 28", "unit": "%"},
      {"measurement": "Inhibition rate (%, mean ± deviation)", "setting": "[5]; liver hydroxyproline", "result": "26 ± 11.9", "unit": "%"}
    ]}
  ]
}
